*1 amine or outer side, *2 acyl side, *3 side chain or, on linkers, in order; H or OH if unused. Where a SMILES comes first, the peptide text is derived from it. Bridges are numbered along the chain shown (N, C = ends). [ ]: non-standard residue; d: D form. The star is where a group is joined. NMePhe(2-(4-MorPh),5-Cl) = CN[C@@H](Cc1cc(Cl)ccc1-c1ccc(N2CCOCC2)cc1)C(=O)O; X157 = CN([C@@H](Cc1cc(Cl)ccc1-c1ccc(S(=O)(=O)N2CCOCC2)cc1)C(=O)[*:2])[*:1]; X202 = CN([C@@H](Cc1cc(Cl)ccc1-c1ccc(N2CCN(CC(F)F)CC2)cc1)C(=O)[*:2])[*:1]; X185 = CN([C@@H](Cc1cc(Cl)ccc1-c1ccc(N2CCOC(C)(C)C2)cc1)C(=O)[*:2])[*:1]; X165 = CN([C@@H](Cc1cc(Cl)ccc1-c1ccc(N2CCOCC2)c(Cl)c1)C(=O)[*:2])[*:1]; X149 = CN([C@@H](Cc1cc(Cl)ccc1-c1ccnc(N2CCOCC2)c1F)C(=O)[*:2])[*:1]; X175 = Cc1cc(-c2ccc(Cl)cc2C[C@@H](C(=O)[*:2])N(C)[*:1])ccc1N1CCOCC1; X136 = CN1CCOc2cc(-c3ccc(Cl)cc3C[C@@H](C(=O)[*:2])N(C)[*:1])ccc21; NMehhhLys(Me) = CN([C@@H](CCCCCCCN(C)[*:3])C(=O)[*:2])[*:1]; X22 = CN([C@@H](Cc1cc(Cl)ccc1-c1cnn(C)c1)C(=O)[*:2])[*:1]; cBuCO(3,3-F2-1-CF3) = O=C(C1(C(F)(F)F)CC(F)(F)C1)*; Pro(trans-4-F) = O=C(O)[C@@H]1C[C@@H](F)CN1; Pro(4,4-F2) = O=C(O)[C@@H]1CC(F)(F)CN1; X201 = O=C(C1(C(F)F)CC(F)(F)C1)*; Gly(cPr) = N[C@H](C(=O)O)C1CC1
Experiments:
CyclinB1/CDK1 = target: T1, CyclinB1/CDK1 (Homo sapiens, UniProt P14635); experiment: Fluorescence Polarization (FP) competitive binding assay, Cyclin B1/Cdk1; details: 10 nM Cyclin B1/Cdk1, 2 nM FAM probe; average of 2-3 independent experiments; read-out: Cyclin B FP IC50;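 note: fluorescence polarization read after equilibration at room temperature, with IC50 taken from serially diluted dose-response curves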
T1 construct: purchased Eurofins, discovery 14-450

OVCAR3 cells = experiment: MTT proliferation assay, OVCAR3; type: cell-based; details: 5 days compound exposure, 1:3 serial dilution starting at 10 μM;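 note: compound given as an 8- or 10-point series, one day after plating, with exposure covering roughly 3-4 cell doublings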
CyclinE1/CDK2 = target: T2, CyclinE1/CDK2 (Homo sapiens, UniProt P24864); experiment: Fluorescence Polarization (FP) competitive binding assay, Cyclin E1/Cdk2; details: 10 nM Cyclin E1/Cdk2, 2 nM FAM probe; average of 2-3 independent experiments; read-out: Cyclin E FP IC50;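 note: readings taken after two-hour equilibration at room temperature in HEPES buffer with NaCl, DTT, NP-40 and BSA, IC50 fitted from eight-concentration serial dilution series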
T2 construct: purchased Eurofins, discovery 14-475

CyclinA2/CDK2 = target: T3, CyclinA2/CDK2 (Homo sapiens, UniProt P20248); experiment: Fluorescence Polarization (FP) competitive binding assay, Cyclin A2/Cdk2; details: 8 nM Cyclin A2/Cdk2, 2 nM FAM probe; average of 2-3 independent experiments; read-out: Cyclin A FP IC50;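 note: plates equilibrated two hours at room temperature before polarization reading, IC50 fitted from eight-concentration compound titration curves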
T3 construct: purchased CRELUX Protein Services

NCI-H1048 cells = experiment: MTT proliferation assay, NCI-H1048; type: cell-based; details: 5 days compound exposure, 1:3 serial dilution starting at 10 μM;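 note: Dose-response in 96-well plates over 8 or 10 concentration points, with exposure spanning 3-4 cell doublings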

CC(C)C[C@@H]1NC(=O)[C@@H](N(C)C(=O)[C@@H](NC(=O)[C@@H]2C[C@@H](F)CN2C(=O)C2(C(F)(F)F)CC(F)(F)C2)C2CC2)CCCCCCCN(C)C(=O)[C@H](Cc2cc(Cl)ccc2-c2ccc3c(c2)OCCN3C)N(C)C1=O [Example 342] ({cBuCO(3,3-F2-1-CF3)}-[Pro(trans-4-F)][Gly(cPr)][NMehhhLys(Me)]L[X136]; lactam 3-C)
IC50 (CyclinB1/CDK1): 20 nM
GI50 (OVCAR3 cells): 10 nM
IC50 (CyclinE1/CDK2): 590 nM
IC50 (CyclinA2/CDK2): 20 nM
GI50 (NCI-H1048 cells): 10 nM

CC(C)C[C@@H]1NC(=O)[C@@H](N(C)C(=O)[C@@H](NC(=O)[C@@H]2CC(F)(F)CN2C(=O)C2(C(F)(F)F)CC(F)(F)C2)C2CC2)CCCCCCCN(C)C(=O)[C@H](Cc2cc(Cl)ccc2-c2cnn(C)c2)N(C)C1=O [Example 343] ({cBuCO(3,3-F2-1-CF3)}-[Pro(4,4-F2)][Gly(cPr)][NMehhhLys(Me)]L[X22]; lactam 3-C)
IC50 (CyclinB1/CDK1): 20 nM
GI50 (OVCAR3 cells): 10 nM
IC50 (CyclinE1/CDK2): 670 nM
IC50 (CyclinA2/CDK2): 20 nM
GI50 (NCI-H1048 cells): 10 nM

Cc1cc(-c2ccc(Cl)cc2C[C@H]2C(=O)N(C)CCCCCCC[C@H](N(C)C(=O)[C@@H](NC(=O)[C@@H]3C[C@@H](F)CN3C(=O)C3(C(F)(F)F)CC(F)(F)C3)C3CC3)C(=O)N[C@@H](CC(C)C)C(=O)N2C)ccc1N1CCOCC1 [Example 344] ({cBuCO(3,3-F2-1-CF3)}-[Pro(trans-4-F)][Gly(cPr)][NMehhhLys(Me)]L[X175]; lactam 3-C)
IC50 (CyclinB1/CDK1): 20 nM
GI50 (OVCAR3 cells): 20 nM
IC50 (CyclinE1/CDK2): 1270 nM
IC50 (CyclinA2/CDK2): 20 nM
GI50 (NCI-H1048 cells): 10 nM

CC(C)C[C@@H]1NC(=O)[C@@H](N(C)C(=O)[C@@H](NC(=O)[C@@H]2C[C@@H](F)CN2C(=O)C2(C(F)(F)F)CC(F)(F)C2)C2CC2)CCCCCCCN(C)C(=O)[C@H](Cc2cc(Cl)ccc2-c2ccc(N3CCOCC3)c(Cl)c2)N(C)C1=O [Example 345] ({cBuCO(3,3-F2-1-CF3)}-[Pro(trans-4-F)][Gly(cPr)][NMehhhLys(Me)]L[X165]; lactam 3-C)
IC50 (CyclinB1/CDK1): 20 nM
GI50 (OVCAR3 cells): 40 nM
IC50 (CyclinE1/CDK2): 3050 nM
IC50 (CyclinA2/CDK2): 30 nM
GI50 (NCI-H1048 cells): 20 nM

CC(C)C[C@@H]1NC(=O)[C@@H](N(C)C(=O)[C@@H](NC(=O)[C@@H]2C[C@@H](F)CN2C(=O)C2(C(F)(F)F)CC(F)(F)C2)C2CC2)CCCCCCCN(C)C(=O)[C@H](Cc2cc(Cl)ccc2-c2ccnc(N3CCOCC3)c2F)N(C)C1=O [Example 349] ({cBuCO(3,3-F2-1-CF3)}-[Pro(trans-4-F)][Gly(cPr)][NMehhhLys(Me)]L[X149]; lactam 3-C)
IC50 (CyclinB1/CDK1): 20 nM
GI50 (OVCAR3 cells): 10 nM
IC50 (CyclinE1/CDK2): 230 nM
IC50 (CyclinA2/CDK2): 20 nM
GI50 (NCI-H1048 cells): 10 nM

CC(C)C[C@@H]1NC(=O)[C@@H](N(C)C(=O)[C@@H](NC(=O)[C@@H]2C[C@@H](F)CN2C(=O)C2(C(F)F)CC(F)(F)C2)C2CC2)CCCCCCCN(C)C(=O)[C@H](Cc2cc(Cl)ccc2-c2ccc(N3CCOCC3)cc2)N(C)C1=O [Example 350] (X201-[Pro(trans-4-F)][Gly(cPr)][NMehhhLys(Me)]L[NMePhe(2-(4-MorPh),5-Cl)]; lactam 3-C)
IC50 (CyclinB1/CDK1): 20 nM
GI50 (OVCAR3 cells): 10 nM
IC50 (CyclinE1/CDK2): 880 nM
IC50 (CyclinA2/CDK2): 20 nM
GI50 (NCI-H1048 cells): 10 nM

CC(C)C[C@@H]1NC(=O)[C@@H](N(C)C(=O)[C@@H](NC(=O)[C@@H]2C[C@@H](F)CN2C(=O)C2(C(F)(F)F)CC(F)(F)C2)C2CC2)CCCCCCCN(C)C(=O)[C@H](Cc2cc(Cl)ccc2-c2ccc(N3CCN(CC(F)F)CC3)cc2)N(C)C1=O [Example 352] ({cBuCO(3,3-F2-1-CF3)}-[Pro(trans-4-F)][Gly(cPr)][NMehhhLys(Me)]L[X202]; lactam 3-C)
IC50 (CyclinB1/CDK1): 20 nM
GI50 (OVCAR3 cells): 10 nM
IC50 (CyclinE1/CDK2): 510 nM
IC50 (CyclinA2/CDK2): 20 nM
GI50 (NCI-H1048 cells): 10 nM

CC(C)C[C@@H]1NC(=O)[C@@H](N(C)C(=O)[C@@H](NC(=O)[C@@H]2C[C@@H](F)CN2C(=O)C2(C(F)(F)F)CC(F)(F)C2)C2CC2)CCCCCCCN(C)C(=O)[C@H](Cc2cc(Cl)ccc2-c2ccc(S(=O)(=O)N3CCOCC3)cc2)N(C)C1=O [Example 354] ({cBuCO(3,3-F2-1-CF3)}-[Pro(trans-4-F)][Gly(cPr)][NMehhhLys(Me)]L[X157]; lactam 3-C)
IC50 (CyclinB1/CDK1): 20 nM
GI50 (OVCAR3 cells): 20 nM
IC50 (CyclinE1/CDK2): 1340 nM
IC50 (CyclinA2/CDK2): 30 nM
GI50 (NCI-H1048 cells): 10 nM

CC(C)C[C@@H]1NC(=O)[C@@H](N(C)C(=O)[C@@H](NC(=O)[C@@H]2C[C@@H](F)CN2C(=O)C2(C(F)(F)F)CC(F)(F)C2)C2CC2)CCCCCCCN(C)C(=O)[C@H](Cc2cc(Cl)ccc2-c2ccc(N3CCOC(C)(C)C3)cc2)N(C)C1=O [Example 366] ({cBuCO(3,3-F2-1-CF3)}-[Pro(trans-4-F)][Gly(cPr)][NMehhhLys(Me)]L[X185]; lactam 3-C)
IC50 (CyclinB1/CDK1): 20 nM
GI50 (OVCAR3 cells): 20 nM
IC50 (CyclinE1/CDK2): 1050 nM
IC50 (CyclinA2/CDK2): 20 nM
GI50 (NCI-H1048 cells): 20 nM

Source: US20240408169A1 (priority 2023, published 2024)
